In PMC6270455, “Antibacterial and Herbicidal Activity of Ring-Substituted 3-Hydroxynaphthalene-2-carboxanilides” (Molecules, 2013):
Converted amounts (≈) assume the structure as drawn. “And” between values parts separate entries of the source, which are not always exact repeats. Equal entries are not always repeated.

Experiments:
[1] = system: Mycobacterium marinum CAMP 5644; experiment: In vitro antimycobacterial evaluation, broth dilution micro-method; type: cell-based; details: CAMP5644, 504 h, Middlebrook 7H9, 21 days, 28 °C
M. kansasii DSM 44162 = experiment: as above; type: cell-based; details: Mycobacterium kansasii, DSM44162, 168 h, Middlebrook 7H9, 7 days, 37 °C
[2] = system: Staphylococcus aureus ATCC 29213; experiment: In vitro antibacterial susceptibility testing, broth dilution micro-method; type: cell-based; details: 24 h, 37 °C; for MIC: ATCC29213, MH broth
Description: (§1) The synthesized compounds were evaluated for in vitro antibacterial activity against representatives of multidrug-resistant bacteria, clinical isolates of methicillin-resistant Staphylococcus aureus (MRSA) 63718, SA 630 and SA 3202 that were obtained from the National Institute of Public Health, Prague, Czech Republic. Staphylococcus aureus ATCC 29213 was used as a reference and quality control strain. Ampicillin (Sigma-Aldrich) was used as the standard. Prior to testing, each strain was passaged onto nutrient agar (Oxoid, Hampshire, UK) with 5% of bovine blood, and bacterial inocula were prepared by suspending a small portion of bacterial colony in sterile phosphate buffered saline (pH 7.2–7.3). The cell density was adjusted to 0.5 McFarland units using a densitometer (Densi-La-Meter, LIAP, Riga, Latvia). The final inoculum was made by 1:20 dilution of the suspension with the Mueller-Hinton broth (MH broth). […] The broth dilution micro-method modified according to NCCLS guidelines in MH broth was used to determine the minimum inhibitory concentration (MIC). Drug-free controls, sterility controls and controls consisted of MH broth and DMSO alone were included. The determination of results was performed visually after 24 h of static incubation in the darkness at 37 °C in an aerobic atmosphere. The MICs were defined as the lowest concentration of the compound at which no visible bacterial growth was observed.

[3] = system: methicillin-resistant Staphylococcus aureus (MRSA) 63718; experiment: as above; type: cell-based; details: clinical isolate MRSA 63718, MH broth, 24 h, 37 °C; for MIC: Staphylococcus aureus
Description: as §1

[4] = system: methicillin-resistant S. aureus SA 3202; experiment: as above; type: cell-based, Staphylococcus aureus; details: clinical isolate MRSA SA 3202, MH broth, 24 h, 37 °C; for MIC: Staphylococcus aureus
Description: as §1

[5] = system: methicillin-resistant S. aureus SA 630; experiment: as above; type: cell-based, Staphylococcus aureus; details: clinical isolate MRSA SA 630, MH broth, 24 h, 37 °C; for MIC: Staphylococcus aureus
Description: as §1

[6] = Lipophilicity determination by RP-HPLC (capacity factor, log k); type: physicochemical; details: RP-HPLC capacity factor logarithm; C18 column, MeOH 60% / H2O 40%, 40 °C
Description: Lipophilicity of the studied compounds was determined by RP-HPLC as capacity factor logarithm (log k) and calculated as log P using ACD/Percepta software. […] It is important to note that lipophilicity also has a great impact on target and off-target interactions, as mentioned below.
A HPLC system Agilent 1200 equipped with DAD detector (Agilent, Santa Clara, CA, USA) was used. A chromatographic column Symmetry® C18 5 μm, 4.6 × 250 mm, Part No. WAT054275, (Waters Corp., Milford, MA, USA) was used. The HPLC separation process was monitored and evaluated by EZChrom Elite software ver. 3.3.2 (Agilent). Isocratic elution by a mixture of MeOH p.a. (60%) and H2O-HPLC Mili-Q grade (40%) as a mobile phase was used. The total flow of the column was 1.0 mL/min, injection 20 μL, column temperature 40 °C and sample temperature 10 °C. The detection wavelength 210 nm was chosen. The KI methanolic solution was used for the dead time (tD) determination. Retention times (tR) were measured in minutes. The capacity factors k were calculated according to formula k = (tR − tD)/tD, where tR is the retention time of the solute, whereas tD denotes the dead time obtained using an unretained analyte. Log k, calculated from the capacity factor k, is used as the lipophilicity index converted to log P scale.

[7] = system: photosynthetic electron transport (PET) in spinach chloroplasts; experiment: Inhibition of photosynthetic electron transport (PET) in spinach chloroplasts (DCPIP photoreduction); type: biochemical, Spinacia oleracea L.
Description: Chloroplasts were prepared from spinach (Spinacia oleracea L.) according to Masarovicova and Kralova. The inhibition of photosynthetic electron transport (PET) in spinach chloroplasts was determined spectrophotometrically (Genesys 6, Thermo Scientific), using an artificial electron acceptor 2,6-dichlorophenol-indophenol (DCIPP) according to Kralova et al., and the rate of photosynthetic electron transport was monitored as a photoreduction of DCPIP. The measurements were carried out in phosphate buffer (0.02 mol/L, pH 7.2) containing sucrose (0.4 mol/L), MgCl2 (0.005 mol/L) and NaCl (0.015 mol/L). The chlorophyll content was 30 mg/L in these experiments and the samples were irradiated (~100 W/m^2 with 10 cm distance) with a halogen lamp (250 W) using a 4 cm water filter to prevent warming of the samples (suspension temperature 22 °C). The studied compounds were dissolved in DMSO due to their limited water solubility. […] The inhibitory efficiency of the studied compounds was expressed by IC50 values, i.e., by molar concentration of the compounds causing 50% decrease in the oxygen evolution rate relative to the untreated control.

[8] = phosphate buffer pH 7.2, DCPIP acceptor

Row | MIC [1] | MIC (M. kansasii DSM 44162) | MIC [2] | MIC [3] | MIC [4] | MIC [5] | log k [6] | IC50 [7, 8] | IC50 ([7]; as quoted in the chlorophyll a fluorescence discussion) | MIC SA ([2]; MH broth) | MIC MRSA 63718 [3] | MIC MRSA 3202 [4] | MIC MRSA 630 [5] | SMILES
1 | > 860 µM | 860 µM (≈ 256 µg/mL) | > 860 µM | > 860 µM | 215 µM (≈ 64 µg/mL) | 430 µM (≈ 128 µg/mL) | 1.0796 |  |  |  |  |  |  | O=C(Nc1cccc(Cl)c1)c1cc2ccccc2cc1O [5b, N-(3-Chlorophenyl)-3-hydroxynaphthalene-2-carboxamide]
2 | 860 µM (≈ 256 µg/mL) | 860 µM (≈ 256 µg/mL) | > 860 µM | > 860 µM | 215 µM (≈ 64 µg/mL) | > 860 µM | 0.9509 |  |  |  |  |  |  | O=C(Nc1ccccc1Cl)c1cc2ccccc2cc1O [5a, N-(2-Chlorophenyl)-3-hydroxynaphthalene-2-carboxamide]
3 | > 748 µM | 748 µM (≈ 256 µg/mL) | > 748 µM | > 748 µM | 187 µM (≈ 64 µg/mL) | > 748 µM | 1.1536 |  |  |  |  |  |  | O=C(Nc1cccc(Br)c1)c1cc2ccccc2cc1O [6b, N-(3-Bromophenyl)-3-hydroxynaphthalene-2-carboxamide]
4 | 910 µM (≈ 256 µg/mL) | 114 µM (≈ 32.1 µg/mL) | > 910 µM | > 910 µM | 228 µM (≈ 64.1 µg/mL) | 455 µM (≈ 128 µg/mL) | 0.7317 |  |  |  |  |  |  | O=C(Nc1ccc(F)cc1)c1cc2ccccc2cc1O [4c, N-(4-Fluorophenyl)-3-hydroxynaphthalene-2-carboxamide]
5 | > 748 µM | 748 µM (≈ 248 µg/mL) | > 748 µM | > 748 µM | 187 µM (≈ 62 µg/mL) | 374 µM (≈ 124 µg/mL) | 1.2053 |  |  |  |  |  |  | O=C(Nc1cccc(C(F)(F)F)c1)c1cc2ccccc2cc1O [7b, 3-Hydroxy-N-(3-trifluoromethylphenyl)naphthalene-2-carboxamide]
6 | > 748 µM | 374 µM (≈ 128 µg/mL) | > 748 µM | > 748 µM | 187 µM (≈ 64 µg/mL) | > 748 µM | 1.1459 |  |  |  |  |  |  | O=C(Nc1ccc(Br)cc1)c1cc2ccccc2cc1O [6c, N-(4-Bromophenyl)-3-hydroxynaphthalene-2-carboxamide]
7 | > 748 µM | 748 µM (≈ 256 µg/mL) | > 748 µM | > 748 µM | > 748 µM | > 748 µM | 0.9715 | 43.2 µM |  |  |  |  |  | O=C(Nc1ccccc1Br)c1cc2ccccc2cc1O [6a, N-(2-Bromophenyl)-3-hydroxynaphthalene-2-carboxamide]
8 | > 860 µM | 430 µM (≈ 128 µg/mL) | > 860 µM | > 860 µM | > 860 µM | > 860 µM | 1.0687 |  |  |  |  |  |  | O=C(Nc1ccc(Cl)cc1)c1cc2ccccc2cc1O [5c, N-(4-Chlorophenyl)-3-hydroxynaphthalene-2-carboxamide]
9 | > 748 µM | 187 µM (≈ 62 µg/mL) | > 748 µM | > 748 µM | 187 µM (≈ 62 µg/mL) | 374 µM (≈ 124 µg/mL) | 1.2835 |  |  |  |  |  |  | O=C(Nc1ccc(C(F)(F)F)cc1)c1cc2ccccc2cc1O [7c, 3-Hydroxy-N-(4-trifluoromethylphenyl)naphthalene-2-carboxamide]
10 | 114 µM (≈ 32.1 µg/mL) | 114 µM (≈ 32.1 µg/mL) | > 910 µM | > 910 µM | 228 µM (≈ 64.1 µg/mL) | 455 µM (≈ 128 µg/mL) | 0.8296 |  |  |  |  |  |  | O=C(Nc1cccc(F)c1)c1cc2ccccc2cc1O [4b, N-(3-Fluorophenyl)-3-hydroxynaphthalene-2-carboxamide]
11 | 28.4 µM (≈ 7.99 µg/mL) | 56.9 µM (≈ 16 µg/mL) | > 910 µM | > 910 µM | 228 µM (≈ 64.1 µg/mL) | 455 µM (≈ 128 µg/mL) | 0.7303 |  |  |  |  |  |  | O=C(Nc1ccccc1F)c1cc2ccccc2cc1O [compound 4a, N-(2-Fluorophenyl)-3-hydroxynaphthalene-2-carboxamide]

Continued, compound first:

Row | SMILES | MIC [1] | MIC (M. kansasii DSM 44162) | MIC [2] | MIC [3] | MIC [4] | MIC [5] | log k [6] | IC50 [7, 8] | IC50 ([7]; as quoted in the chlorophyll a fluorescence discussion) | MIC SA ([2]; MH broth) | MIC MRSA 63718 [3] | MIC MRSA 3202 [4] | MIC MRSA 630 [5]
12 | NNC(=O)c1ccncc1 [INH, isoniazid, reference compound] | 467 µM (≈ 64 µg/mL) |  |  |  |  |  |  |  |  |  |  |  | 
13 | Cc1ccc(NC(=O)c2cc3ccccc3cc2O)cc1 [3c, 3-Hydroxy-N-(4-methylphenyl)naphthalene-2-carboxamide] | > 923 µM | 923 µM (≈ 256 µg/mL) | > 923 µM | > 923 µM | 231 µM (≈ 64.1 µg/mL) | 462 µM (≈ 128 µg/mL) | 0.8753 |  |  |  |  |  | 
14 | Cc1cccc(NC(=O)c2cc3ccccc3cc2O)c1 [3b, 3-Hydroxy-N-(3-methylphenyl)naphthalene-2-carboxamide] | 923 µM (≈ 256 µg/mL) | 57.7 µM (≈ 16 µg/mL) | > 923 µM | > 923 µM | 462 µM (≈ 128 µg/mL) | > 923 µM | 0.8831 |  |  |  |  |  | 
15 | CC1(C)S[C@@H]2[C@H](NC(=O)[C@H](N)c3ccccc3)C(=O)N2[C@H]1C(=O)O [APC, ampicillin, reference compound] |  |  | 5.7 µM (≈ 1.99 µg/mL) | > 45.8 µM | > 45.8 µM | > 45.8 µM |  |  |  |  |  |  | 
16 | CN(C)C(=O)Nc1ccc(Cl)c(Cl)c1 [DCMU, 3-(3,4-dichlorophenyl)-1,1-dimethylurea, reference compound] |  |  |  |  |  |  |  | ~1.9 µM and 1.9 µM |  |  |  |  | 
17 | COc1cccc(NC(=O)c2cc3ccccc3cc2O)c1 [compound 2b, 3-Hydroxy-N-(3-methoxyphenyl)naphthalene-2-carboxamide] | > 873 µM | 54.6 µM (≈ 16 µg/mL) | > 873 µM | > 873 µM | > 873 µM | > 873 µM | 0.6971 | 53.4 µM | 53.4 µM |  |  |  | 
18 | COc1ccc(NC(=O)c2cc3ccccc3cc2O)cc1 [2c, 3-Hydroxy-N-(4-methoxyphenyl)naphthalene-2-carboxamide] | > 873 µM | 873 µM (≈ 256 µg/mL) | > 873 µM | > 873 µM | > 873 µM | > 873 µM | 0.5951 |  |  |  |  |  | 
19 | COc1ccccc1NC(=O)c1cc2ccccc2cc1O [compound 2a, 3-Hydroxy-N-(2-methoxyphenyl)naphthalene-2-carboxamide] | 873 µM (≈ 256 µg/mL) | 218 µM (≈ 63.9 µg/mL) | 55 µM (≈ 16.1 µg/mL) | 55 µM (≈ 16.1 µg/mL) | 55 µM (≈ 16.1 µg/mL) | 55 µM (≈ 16.1 µg/mL) | 0.6916 | 59.5 µM |  | 55 µM (≈ 16.1 µg/mL) | 55 µM (≈ 16.1 µg/mL) | 55 µM (≈ 16.1 µg/mL) | 55 µM (≈ 16.1 µg/mL)
20 | Cc1ccccc1NC(=O)c1cc2ccccc2cc1O [3a, 3-Hydroxy-N-(2-methylphenyl)naphthalene-2-carboxamide] | 462 µM (≈ 128 µg/mL) | 115 µM (≈ 31.9 µg/mL) | > 923 µM | > 923 µM | 462 µM (≈ 128 µg/mL) | > 923 µM | 0.6936 |  |  |  |  |  | 
21 | O=C(Nc1ccccc1)c1cc2ccccc2cc1O [compound 1, 3-Hydroxy-N-phenylnaphthalene-2-carboxamide] | 122 µM (≈ 32.1 µg/mL) | 972 µM (≈ 256 µg/mL) | > 972 µM | > 972 µM | > 972 µM | > 972 µM | 0.6310 |  |  |  |  |  | 
